Assay results from PMC6297231 (Nature Communications, 2018).

Legend:
Experiment in all cases: cells
KMS11 = conditions: Homo sapiens, KMS-11, 6 h, read-out: AZD5991 6h EC50
Method: (§1) Cells were plated at 3000 cells/well in 384-well white plates in corresponding cell growth media. […] Caspase-3/7 activation was subsequently determined using a Caspase-Glo 3/7 Reagent (Promega) and viability was assayed using the CellTiter-Glo Reagent (Promega) as described in manufacturer’s instructions. Dose–response curves for caspase-3/7 activation and viability were plotted and analyzed (including EC50 and GI50 determination) using GraphPad Prism. Percentage of caspase activation was calculated against the maximum caspase activation value (100%) obtained with a proprietary cell kill control.

Z-138 = conditions: Homo sapiens, Z-138, 6 h, read-out: AZD5991 6h EC50
Method: as §1

Namalwa = conditions: 6 h, read-out: AZD5991 6h EC50
Method: as §1

MAVER1 = conditions: Homo sapiens, Maver1, 6 h, read-out: AZD5991 6h EC50
Method: as §1

Ramos = conditions: Homo sapiens, 6 h, read-out: AZD5991 6h EC50
Method: as §1

KMS26 = conditions: KMS-26, 6 h, read-out: AZD5991 6h EC50
Method: as §1

Sudhl16 = conditions: Homo sapiens, SU-DHL-16, 6 h, read-out: AZD5991 6h EC50
Method: as §1

RI1 = conditions: Ri-1, 6 h, read-out: AZD5991 6h EC50
Method: as §1

DU145 = conditions: Homo sapiens, DU-145, 6 h, read-out: AZD5991 6h EC50
Method: as §1

OE21 = conditions: OE21, 6 h, read-out: AZD5991 6h EC50
Method: as §1

OPM2 = conditions: Homo sapiens, OPM-2, 6 h, read-out: AZD5991 6h EC50
Method: as §1

REC1 = conditions: Homo sapiens, Rec1, 6 h, read-out: AZD5991 6h EC50
Method: as §1

SKMEL24 = conditions: Homo sapiens, SK-MEL-24, 6 h, read-out: AZD5991 6h EC50
Method: as §1

Daudi = conditions: Homo sapiens, 6 h, read-out: AZD5991 6h EC50
Method: as §1

T47D = conditions: Homo sapiens, 6 h, read-out: AZD5991 6h EC50
Method: as §1

H1568 = conditions: NCI-H1568, 6 h, read-out: AZD5991 6h EC50
Method: as §1

A2058 = conditions: Homo sapiens, A2058, 6 h, read-out: AZD5991 6h EC50
Method: as §1

647V = conditions: Homo sapiens, 6 h, read-out: AZD5991 6h EC50
Method: as §1

Sudhl4 = conditions: Homo sapiens, SU-DHL-4, 6 h, read-out: AZD5991 6h EC50
Method: as §1

H82 = conditions: Homo sapiens, NCI-H82, 6 h, read-out: AZD5991 6h EC50
Method: as §1

DMS79 = conditions: Homo sapiens, DMS-79, 6 h, read-out: AZD5991 6h EC50
Method: as §1

G361 = conditions: Homo sapiens, G-361, 6 h, read-out: AZD5991 6h EC50
Method: as §1

ML2 = conditions: Homo sapiens, ML-2, 6 h, read-out: AZD5991 6h EC50
Method: as §1

JEKO1 = conditions: Homo sapiens, JeKo-1, 6 h, read-out: AZD5991 6h EC50
Method: as §1

MDAMB231 = conditions: Homo sapiens, MDA-MB-231, 6 h, read-out: AZD5991 6h EC50
Method: as §1

RPMI8226 = conditions: Homo sapiens, RPMI-8226, 6 h, read-out: AZD5991 6h EC50
Method: as §1

HMCB = conditions: Homo sapiens, 6 h, read-out: AZD5991 6h EC50
Method: as §1

RCPIWM1 = conditions: 6 h, read-out: AZD5991 6h EC50
Method: as §1

HCC1187 = conditions: Homo sapiens, HCC1187, 6 h, read-out: AZD5991 6h EC50
Method: as §1

MUTZ3 = conditions: 6 h, read-out: AZD5991 6h EC50
Method: as §1

SKMEL2 = conditions: Homo sapiens, SK-MEL-2, 6 h, read-out: AZD5991 6h EC50
Method: as §1

Will2 = conditions: 6 h, read-out: AZD5991 6h EC50
Method: as §1

L363 = conditions: Homo sapiens, L-363, 6 h, read-out: AZD5991 6h EC50
Method: as §1

Sudhl2 = conditions: Homo sapiens, SU-DHL-2, 6 h, read-out: AZD5991 6h EC50
Method: as §1

MONOMAC6 = conditions: Homo sapiens, MONO-MAC-6, 6 h, read-out: AZD5991 6h EC50
Method: as §1

Karpas620 = conditions: Karpas-620, 6 h, read-out: AZD5991 6h EC50
Method: as §1

EJM = conditions: Homo sapiens, 6 h, read-out: AZD5991 6h EC50
Method: as §1

Compound: Cc1c2c(nn1C)CSCc1cc(n(C)n1)CSc1cc(c3ccccc3c1)OCCCc1c(C(=O)O)n(C)c3c-2c(Cl)ccc13 (atropisomer, axis not shown; (Ra)) [(Ra)-7]
- EC50 (KMS11): 1.57 µM
- EC50 (Z-138): > 30 µM
- EC50 (Namalwa): 0.067 µM
- EC50 (MAVER1): 27.8 µM
- EC50 (Ramos): 0.028 µM
- EC50 (KMS26): 0.144 µM
- EC50 (Sudhl16): 0.139 µM
- EC50 (RI1): > 30 µM
- EC50 (DU145): > 30 µM
- EC50 (OE21): 0.187 µM
- EC50 (OPM2): 0.059 µM
- EC50 (REC1): 2.01 µM
- EC50 (SKMEL24): > 30 µM
- EC50 (Daudi): 16.1 µM
- EC50 (T47D): > 30 µM
- EC50 (H1568): 0.3 µM
- EC50 (A2058): > 30 µM
- EC50 (647V): 26.5 µM
- EC50 (Sudhl4): 0.266 µM
- EC50 (H82): 0.201 µM
- EC50 (DMS79): > 30 µM
- EC50 (G361): 2.44 µM
- EC50 (ML2): 0.083 µM
- EC50 (JEKO1): 0.512 µM
- EC50 (MDAMB231): > 30 µM
- EC50 (RPMI8226): 0.076 µM
- EC50 (HMCB): 25.9 µM
- EC50 (RCPIWM1): 0.039 µM
- EC50 (HCC1187): 0.235 µM
- EC50 (MUTZ3): 0.026 µM
- EC50 (SKMEL2): 9.48 µM
- EC50 (Will2): 0.193 µM
- EC50 (L363): 0.09 µM
- EC50 (Sudhl2): 0.275 µM
- EC50 (MONOMAC6): 0.268 µM
- EC50 (Karpas620): 0.122 µM
- EC50 (EJM): 0.169 µM
